Laboratory results from US20170304388A1, “NEW INDICATION OF CARDIOVASCULAR DRUGS FOR PREPARATION OF CANCER INHIBITION PHARMACEUTICAL COMPOSITION” (LAUNX BIOMEDICAL CO., LTD., priority 2014, published 2017).

How the values were obtained:
Type in all cases: cell-based
786-O = assay: Cell viability analysis (WST-1), 786-O; conditions: Table 4, repeated experiments, drug 10 μM; for viability at 10 µM: Homo sapiens, 786-0, 72 h, read-out: survival rate (viability) of cancer cells, 786-O
Method in brief: (§1)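 Cancer cells seeded at 3000 cells/well, then medium replaced with drug at 10 μM. After 72 h, WST-1 diluted 9:1 in medium was added and plates incubated at 37° C for 30 to 90 minutes; survival rate calculated from OD450 nm.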

[1] = system: A549 (Lung Adenocarcinoma); assay: Cell viability analysis (WST-1), A549; conditions: Table 4, repeated experiments, drug 10 μM; for viability at 10 µM: Homo sapiens, A549, 72 h, WST-1, read-out: survival rate (viability) of cancer cells, A549
[2] = system: HCT116 (Colorectal Carcinoma); assay: Cell viability analysis (WST-1), HCT116; conditions: Table 4, repeated experiments, drug 10 μM; for viability at 10 µM: Homo sapiens, HCT-116, 72 h, WST-1, read-out: survival rate (viability) of cancer cells, HCT116
BxPC-3 = assay: Cell viability analysis (WST-1), BxPC-3; conditions: Table 4, repeated experiments, drug 10 μM; for viability at 10 µM: Homo sapiens, BXPC-3, 72 h, read-out: survival rate (viability) of cancer cells, BxPC-3
Method in brief: as §1

NIH-OVCAR-3 = assay: Cell viability analysis (WST-1), NIH-OVCAR-3; conditions: Table 4, repeated experiments, drug 10 μM; for viability at 10 µM: Homo sapiens, OVCAR-3, 72 h, read-out: survival rate (viability) of cancer cells, NIH-OVCAR-3
Method in brief: as §1

T24 = assay: Cell viability analysis (WST-1), T24; conditions: Table 4, repeated experiments, drug 10 μM; for viability at 10 µM: Homo sapiens, T-24, 72 h, read-out: survival rate (viability) of cancer cells, T24
Method in brief: as §1

AsPC-1 = assay: Cell viability analysis (WST-1), AsPC-1; conditions: Table 4, repeated experiments, drug 10 μM; for viability at 10 µM: Homo sapiens, ASPC1, 72 h, read-out: survival rate (viability) of cancer cells, AsPC-1
Method in brief: as §1

[3] = system: LoVo (Colorectal Adenocarcinoma); assay: Cell viability analysis (WST-1), LoVo; conditions: Table 4, repeated experiments, drug 10 μM; for viability at 10 µM: Homo sapiens, LoVo, 72 h, WST-1, read-out: survival rate (viability) of cancer cells, LoVo
[4] = system: PC3 (Prostate Adenocarcinoma); assay: Cell viability analysis (WST-1), PC3; conditions: Table 4, repeated experiments, drug 10 μM; for viability at 10 µM: 72 h, WST-1, read-out: survival rate (viability) of cancer cells, PC-3
U2OS = assay: Cell viability analysis (WST-1), U2OS; conditions: Table 4, repeated experiments, drug 10 μM; for viability at 10 µM: Homo sapiens, U2OS, 72 h, read-out: survival rate (viability) of cancer cells, U2OS
Method in brief: as §1

cancer cell lines = assay: Growth inhibitory effects on the panel of cancer cell lines; conditions: drug 10 μM, 72 hours, WST-1
[5] = system: MCF7 (Mammary Gland, Adenocarcinoma); assay: Cell viability analysis (WST-1), MCF7; conditions: Table 4, repeated experiments, drug 10 μM; for viability at 10 µM: Homo sapiens, MCF7, 72 h, WST-1, read-out: survival rate (viability) of cancer cells, MCF-7
[6] = system: MKN-45 (Gastric Adenocarcinoma); assay: Cell viability analysis (WST-1), MKN-45; conditions: Table 4, repeated experiments, drug 10 μM; for viability at 10 µM: Homo sapiens, MKN-45, 72 h, WST-1, read-out: survival rate (viability) of cancer cells, MKN-45
[7] = system: TSGH-8301 (Urinary Bladder Carcinoma); assay: Cell viability analysis (WST-1), TSGH-8301; conditions: Table 4, repeated experiments, drug 10 μM; for viability at 10 µM: 72 h, WST-1, read-out: survival rate (viability) of cancer cells, TSGH-8301
SAS = assay: Cell viability analysis (WST-1), SAS; conditions: Table 4, repeated experiments, drug 10 μM; for viability at 10 µM: 72 h, read-out: survival rate (viability) of cancer cells, SAS
Method in brief: as §1

[8] = system: AGS (Gastric Adenocarcinoma); assay: Cell viability analysis (WST-1), AGS; conditions: Table 4, repeated experiments, drug 10 μM; for viability at 10 µM: 72 h, WST-1, read-out: survival rate (viability) of cancer cells, AGS
TOV-21G = assay: Cell viability analysis (WST-1), TOV-21G; conditions: Table 4, repeated experiments, drug 10 μM; for viability at 10 µM: Homo sapiens, TOV21G, 72 h, read-out: survival rate (viability) of cancer cells, TOV-21G
Method in brief: as §1

BCC = assay: Cell viability analysis (WST-1), BCC; conditions: Table 4, repeated experiments, drug 10 μM; for viability at 10 µM: BCC, 72 h, read-out: survival rate (viability) of cancer cells, BCC
[9] = system: A375 (Amelanotic Melanoma); assay: Cell viability analysis (WST-1), A375; conditions: Table 4, repeated experiments, drug 10 μM; for viability at 10 µM: Homo sapiens, A-375, 72 h, WST-1, read-out: survival rate (viability) of cancer cells, A375
[10] = system: HeLa (Cervix Adenocarcinoma); assay: Cell viability analysis (WST-1), HeLa; conditions: Table 4, repeated experiments, drug 10 μM; for viability at 10 µM: Homo sapiens, HeLa, 72 h, WST-1, read-out: survival rate (viability) of cancer cells, HeLa
[11] = system: H1650 (Lung Adenocarcinoma); assay: Cell viability analysis (WST-1), H1650; conditions: Table 4, repeated experiments, drug 10 μM; for viability at 10 µM: Homo sapiens, NCI-H1650, 72 h, WST-1, read-out: survival rate (viability) of cancer cells, H1650
MDA-MB231 = assay: Cell viability analysis (WST-1), MDA-MB231; conditions: Table 4, repeated experiments, drug 10 μM; for viability at 10 µM: Homo sapiens, MDA-MB-231, 72 h, read-out: survival rate (viability) of cancer cells, MDA-MB231
Hep3B = assay: Cell viability analysis (WST-1), Hep3B; conditions: Table 4, repeated experiments, drug 10 μM; for viability at 10 µM: Homo sapiens, Hep3B, 72 h, read-out: survival rate (viability) of cancer cells, Hep3B
Method in brief: as §1

C-33A = assay: Cell viability analysis (WST-1), C-33A; conditions: Table 4, repeated experiments, drug 10 μM; for viability at 10 µM: Homo sapiens, C-33-A, 72 h, read-out: survival rate (viability) of cancer cells, C-33A
Method in brief: as §1

[12] = system: HepG2 (Hepatocellular Carcinoma); assay: Cell viability analysis (WST-1), HepG2; conditions: Table 4, repeated experiments, drug 10 μM; for viability at 10 µM: Homo sapiens, HepG2, 72 h, WST-1, read-out: survival rate (viability) of cancer cells, HepG2

O=C([O-])C[C@H](O)C[C@H](O)/C=C/c1c(C2CC2)nc2ccccc2c1-c1ccc(F)cc1.O=C([O-])C[C@H](O)C[C@H](O)/C=C/c1c(C2CC2)nc2ccccc2c1-c1ccc(F)cc1.[Ca+2] [Pitavastatin calcium (Livalo), Pitavastatin calcium]
survival rate (viability) of cancer cells, 786-O (786-O; 72 hours): 16.46 | survival rate (viability) of cancer cells, A549 ([1]; 72 hours, WST-1): 89.44 | survival rate (viability) of cancer cells, HCT116 ([2]; 72 hours, WST-1): 35.07 | survival rate (viability) of cancer cells, BxPC-3 (BxPC-3; 72 hours): 59.78 | survival rate (viability) of cancer cells, NIH-OVCAR-3 (NIH-OVCAR-3; 72 hours): 61.41 | survival rate (viability) of cancer cells, T24 (T24; 72 hours): 52.63 | survival rate (viability) of cancer cells, AsPC-1 (AsPC-1; 72 hours): 51.36 | survival rate (viability) of cancer cells, LoVo ([3]; 72 hours, WST-1): 65.15 | survival rate (viability) of cancer cells, PC-3 ([4]; 72 hours, WST-1): 27.54 | survival rate (viability) of cancer cells, U2OS (U2OS; 72 hours): 43.44 | inhibition effect on different cancer cell lines (in words) (cancer cell lines): significant inhibition effect | survival rate (viability) of cancer cells, MCF-7 ([5]; 72 hours, WST-1): 83.57 | survival rate (viability) of cancer cells, MKN-45 ([6]; 72 hours, WST-1): 61.3 | survival rate (viability) of cancer cells, TSGH-8301 ([7]; 72 hours, WST-1): 48.92 | survival rate (viability) of cancer cells, SAS (SAS; 72 hours): 38.0374 | survival rate (viability) of cancer cells, AGS ([8]; 72 hours, WST-1): 19.17 | survival rate (viability) of cancer cells, TOV-21G (TOV-21G; 72 hours): 21.79 | survival rate (viability) of cancer cells, BCC (BCC; 72 hours): 26.77 | survival rate (viability) of cancer cells, A375 ([9]; 72 hours, WST-1): 22.09 | survival rate (viability) of cancer cells, HeLa ([10]; 72 hours, WST-1): 36.91 | survival rate (viability) of cancer cells, H1650 ([11]; 72 hours, WST-1): 49.9822 | survival rate (viability) of cancer cells, MDA-MB231 (MDA-MB231; 72 hours): 39.0358 | survival rate (viability) of cancer cells, Hep3B (Hep3B; 72 hours): 96.34 | survival rate (viability) of cancer cells, C-33A (C-33A; 72 hours): 74.75 | survival rate (viability) of cancer cells, HepG2 ([12]; 72 hours, WST-1): 98.06

OC(CNCC(O)C1CCc2cc(F)ccc2O1)C1CCc2cc(F)ccc2O1 (stereo not drawn) [Nebivolol(Bystolic), Nebivolol]
viability at 10 µM (786-O): 38.3% | viability at 10 µM [1]: 49% | viability at 10 µM [2]: 81.9% | viability at 10 µM (BxPC-3): 74.4% | viability at 10 µM (NIH-OVCAR-3): 86.8% | viability at 10 µM (T24): 97.6% | viability at 10 µM (AsPC-1): 88.7% | viability at 10 µM [3]: 85.3% | viability at 10 µM [4]: 37% | viability at 10 µM (U2OS): 66.6% | inhibition effect on different cancer cell lines (in words) (cancer cell lines): significant inhibition effect | viability at 10 µM [5]: 27% | viability at 10 µM [6]: 52.8% | viability at 10 µM [7]: 38% | viability at 10 µM (SAS): 75.6% | viability at 10 µM [8]: 26.6% | viability at 10 µM (TOV-21G): 86.2% | viability at 10 µM (BCC): 55.8% | viability at 10 µM [9]: 44.9% | viability at 10 µM [10]: 52% | viability at 10 µM [11]: 87.4% | viability at 10 µM (MDA-MB231): 66.4% | viability at 10 µM (Hep3B): 44.8% | viability at 10 µM (C-33A): 77% | viability at 10 µM [12]: 42.1%

COc1ccc(-c2nc3ccc(C4=NNC(=O)CC4C)cc3[nH]2)cc1 (stereo not drawn) [Pimobendan (Vetmedin), Pimobendan]
viability at 10 µM (786-O): 39.6% | viability at 10 µM [1]: 58.3% | viability at 10 µM [2]: 53.6% | viability at 10 µM (BxPC-3): 51.9% | viability at 10 µM (NIH-OVCAR-3): 74.7% | viability at 10 µM (T24): 74.2% | viability at 10 µM (AsPC-1): 69.3% | viability at 10 µM [3]: 66.7% | viability at 10 µM [4]: 69.5% | viability at 10 µM (U2OS): 56.6% | inhibition effect on different cancer cell lines (in words) (cancer cell lines): significant inhibition effect | viability at 10 µM [5]: 53.9% | viability at 10 µM [6]: 65.2% | viability at 10 µM [7]: 59.4% | viability at 10 µM (SAS): 51.1% | viability at 10 µM [8]: 60.8% | viability at 10 µM (TOV-21G): 70.7% | viability at 10 µM (BCC): 49.6% | viability at 10 µM [9]: 44.4% | viability at 10 µM [10]: 34% | viability at 10 µM [11]: 77.8% | viability at 10 µM (MDA-MB231): 75% | viability at 10 µM (Hep3B): 94.8% | viability at 10 µM (C-33A): 62.8% | viability at 10 µM [12]: 87.2%
